Results taken from US7482008B1, “Human T cell reactive feline protein (TRFP) isolated from house dust and uses therefor” (Merck Patent GmbH, priority 1989, dated 2009).
“And” between values parts separate entries of the source, which are not always exact repeats. Equal values may be shown once.

Experiments:
[1] = system: BDF1 mice preimmunized with TRFP; experiment: Peptide Y specific antibody ELISA of sera from TRFP-preimmunized, peptide Y tolerized mice; format: in vivo, mouse
Method: The serum was separated as previously described. […] Each incubation step in this protocol lasts 1 hour at 37° C. The wells were incubated with gelatin in PBS for blocking excess binding to the plate. Sera were diluted in PBS in a range from 1/300 to 1/8100 and incubated in triplicate on the plates. After rinsing, the bound mouse antibody was detected by incubation with biotinylated goat anti-mouse IgG (Southern Biotechnology Associates). Streptavidin conjugated to horse radish peroxidase (Southern Biotechnology Associates) was added to detect antigen bound biotinylated antibody-complexes. […] The data from the other sera dilutions were consistent with the data from the 1/900 sera dilution.
The sera were assayed for the presence of peptide Y specific IgM, IgE, and IgG isotypes. The ELISA used to detect antigen specific binding of IgG1, IgG2a, IgG2b, IgG3 and IgM isotypes were similar to the IgG assay described above with the only difference being the biotinylated anti-immunoglobulin used to detect the bound isotype. These assays employed biotinylated goat anti-IgG1 (#1070-08), Southern Biotechnology Associates), anti-IgG2a (#1080-08, SBA), anti-IgG2b (1090-08, SBA) […] (1100-08, SBA), and anti-IgM (1020-08, SBA). Antigens bound IgE was detected similarly, but using biotinylated EM95, a rat monoclonal antibody specific for mouse IgE. (Baniyash M, Eshhar Z, Eur J. Immunol. 14:799, 1984). Biotinylated goat anti-rat Ig was used as an added signal amplification step in the IgE ELISA. […] IgG1 was the major isotype seen in the animals which were injected with saline only, with a titer of 1/2700 for all three animals. […] The titers for IgM and IgG2b were similarly effected.

[2] = system: BDF1 mice preimmunized with TRFP; experiment: ELISA of specific IgG binding of mouse sera to TRFP before and after tolerization; format: in vivo
Method: BDF1 mice were each immunized with 100 μg TRFP in 200 μl IFA (Incomplete Freund's Adjuvant) in a single site intraperitoneally. After four months, the mice were bled and grouped according to their anti-TRFP IgG antibody levels as follows. The mice were warmed with an infra-red lamp and bled through one of the tail veins by nicking the vein with a razor blade (Gilette Platinum Plus). The blood was allowed to drip into a serum separating tube (Microtainer, Becton-Dickenson) and allowed to clot. The sera was then separated from the clot by centrifugation at 13,000 rpm. The sera was stored at −20° C. until use. The sera was assayed for TRFP-specific IgG by ELISA. For the IgG assay, immunoaffinity purified TRFP was coated onto Nunc Polysorp 96-well plates by incubation of 50 μl/well of 2 μg/ml TRFP in PBS. Unless mentioned, each incubation step in this protocol was performed for 1 hour at 37° C. After rinsing with PBS, the wells were incubated with 0.5% gelatin in PBS to block excess binding to the plate. The plates were rinsed with PBS containing 0.05% Tween 20. […] After rinsing, the bound mouse antibody was detected by incubation with biotinylated goat anti-mouse IgG (Southern Biotechnology Associates) diluted 1/10000 in PBS. The plates were rinsed and streptavidin conjugated to horse radish peroxidase (Southern Bio. Ass.) diluted 1/10000 was added for 20 minutes and incubated at room temperature. TMB peroxidase substrate (Kirkegaard and Perry) was used according to directions supplied. The resulting O.D. values were read by an ELISA reader (Bio-Tek modal #310) at 450 nm to quantitate the complexes bound to TRFP protein on the plates. The mice were matched for O.D. of the developed ELISA wells using the 1/500 dilution of each sera and separated into two matched groups of three animals. The range of the values for the TRFP specific IgG of 1/500 dilution sera from these animals was between 1.7 and 2.2. […]

[3] = system: human IgE (cat allergic patient plasma); experiment: Dot blot assay of human IgE binding; settings: percent of cat allergic patients with positive IgE binding
Method: TRFP was coated at 2, 0.2 and 0.02 μg/dot and the peptides at 10, 1 and 0.1 μg/dot. Wells were then washed with 200 μl PBS. After equilibration of blots with Tween solution, (Tris-HCL; pH 7.5 0.025M NaCl 0.17 m Tween-20 0.5%) all sections were blocked with 1% nonfat dry milk, 1% fetal calf serun/Tween solution for 1-1.5 hour. Patient plasma was used at 10% (v/v) in 1% milt/Tween solution and preabsorbed on blank strips of nitrocellulose for 1 hour. After preabsorption, the diluted patient plasma sample was incubated with the antigen bearing dot blot overnight at room temperature (RT). Nitrocellulose dot blot was incubated in biotinylated goat anti-human IgE (1:2500) in Tween solution for 2 hours RT. After washing, the sections were incubated in 1 μCi ^125I-Streptavidin, 1 hour. Following removal of unbound label by extensive washing, the blots were exposed to film for 16 hours.

[4] = specific IgG binding to TRFP, 1/4500 dilution of sera, individual mice #1-#3

## peptide Y: amino acid residues 29-55 from chain 1 of TRFP (SEQ. ID. NO: 18) (KALPVVLENARILKNCVDAKMTEEDKE)
[1]; 10 days after peptide Y/CFA challenge, sera 1/900
  IgG antibody specific for peptide Y: little antibody specific for peptide Y
[1]; mouse, in vivo
  peptide Y specific IgG2a, IgG3, or IgE: No binding above background
[1]; peptide Y tolerized animals
  peptide Y specific IgG2b: no IgG2b binding above background
  peptide Y specific serum IgM titer: 1/300
[1]; peptide Y tolerized animals (two animals / one animal)
  peptide Y specific IgG1 titer: 1/300 and no binding above background
[2]; 20 days following tolerization
  quantity of antibody specific for TRFP: no significant change
[2]; [4]
  ELISA O.D.-sera sampled after “tolerization and challenge: 0.492 and 0.654 and 0.585
  ELISA O.D.-sera sampled before “tolerization” and challenge: 0.670 and 0.687 and 0.686

## TRFP: human T cell reactive feline protein affinity purified from house dust; two covalently linked chains
[3]
  Positive Binding: 100%
